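Method: 48-hour compound exposure of cells in 96-well plates, five concentrations, linear interpolation of endpoints. GI50 = concentration required for 50% inhibition of growth.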 Activity calls are given as the source filed them. Cut-off read from the data, not from the text of the source: active = GI50 up to about 1.1 µM and inactive = higher.
How the values were obtained:
Experiment in all cases: NCI-60 cell line screen, 48 h
SK-MEL-2 = system: SK-MEL-2
SF-295 = system: SF-295
SW-620 = system: SW-620
Malme-3M = system: Malme-3M
RPMI-8226 = system: RPMI-8226
OVCAR-4 = system: OVCAR-4
UACC-62 = system: UACC-62
MDA-MB-231 = system: MDA-MB-231
HL-60 = system: HL-60
KM12 = system: KM12
DU-145 = system: DU-145
CAKI-1 = system: CAKI-1
MDA-MB-435 = system: MDA-MB-435
A498 = system: A498
MOLT-4 = system: MOLT-4
NCI-H460 = system: NCI-H460
EKVX = system: EKVX
LOX IMVI = system: LOX IMVI
SK-OV-3 = system: SK-OV-3
Hs-578T = system: Hs-578T

Compound | GI50 (SK-MEL-2) | GI50 (SF-295) | GI50 (SW-620) | GI50 (Malme-3M) | GI50 (RPMI-8226) | GI50 (OVCAR-4) | GI50 (UACC-62) | GI50 (MDA-MB-231) | GI50 (HL-60) | GI50 (KM12) | GI50 (DU-145) | GI50 (CAKI-1) | GI50 (MDA-MB-435) | GI50 (A498) | GI50 (MOLT-4) | GI50 (NCI-H460) | GI50 (EKVX) | GI50 (LOX IMVI) | GI50 (SK-OV-3) | GI50 (Hs-578T)
O=C(Nc1nc2ccc([N+](=O)[O-])cc2[n+]([O-])n1)C(F)(F)F | 20.7 µM (inactive) | 27.9 µM (inactive) | 37.6 µM (inactive) | 8.02 µM (inactive) | 15 µM (inactive) | 26.3 µM (inactive) | 21.3 µM (inactive) | 26.9 µM (inactive) | 12.9 µM (inactive) | 29.1 µM (inactive) | 37.9 µM (inactive) | 57.3 µM (inactive) | 17.6 µM (inactive) | 29.6 µM (inactive) | 24.4 µM (inactive) | 14.3 µM (inactive) |  |  |  | 
NCC#CCNCCCN1CC1 | > 100 µM (inactive) | > 100 µM (inactive) | > 100 µM (inactive) | > 100 µM (inactive) | 6.11 µM (inactive) | > 100 µM (inactive) | > 100 µM (inactive) |  | > 100 µM (inactive) | > 100 µM (inactive) | > 100 µM (inactive) | > 100 µM (inactive) | > 100 µM (inactive) | > 100 µM (inactive) |  | > 100 µM (inactive) | > 100 µM (inactive) | > 100 µM (inactive) | > 100 µM (inactive) | > 100 µM (inactive)
CCC[S+]([O-])c1nc(COC(=O)NC)c(COC(=O)NC)n1C (stereo unspecified) | > 100 µM (inactive) | > 100 µM (inactive) | > 100 µM (inactive) | > 100 µM (inactive) | > 100 µM (inactive) | > 100 µM (inactive) | > 100 µM (inactive) |  | > 100 µM (inactive) | > 100 µM (inactive) |  | > 100 µM (inactive) |  | > 100 µM (inactive) | > 100 µM (inactive) | > 100 µM (inactive) | > 100 µM (inactive) | > 100 µM (inactive) | > 100 µM (inactive) | 
O=[N+]([O-])/C(C(Cl)=C(Cl)Cl)=C(\N1CCOCC1)n1nnc2ccccc21 | 22.2 µM (inactive) | 17.7 µM (inactive) |  | 18.4 µM (inactive) | 52.6 µM (inactive) | 27.2 µM (inactive) | 23.3 µM (inactive) | 17.5 µM (inactive) |  | 20.2 µM (inactive) | 18.1 µM (inactive) | 17.7 µM (inactive) | 17 µM (inactive) | 16.9 µM (inactive) | 33.5 µM (inactive) | 19.4 µM (inactive) | 17.9 µM (inactive) |  | 27.2 µM (inactive) | 
CC(=O)Oc1cc(C(F)(F)F)ccc1C(=O)OC1(C)OC(=O)c2ccc(C(F)(F)F)cc2O1 (stereo unspecified) |  | > 100 µM (inactive) | > 100 µM (inactive) | > 100 µM (inactive) |  | > 100 µM (inactive) | > 100 µM (inactive) | > 100 µM (inactive) | > 100 µM (inactive) | > 100 µM (inactive) | > 100 µM (inactive) | > 100 µM (inactive) | > 100 µM (inactive) | > 100 µM (inactive) | > 100 µM (inactive) | > 100 µM (inactive) | > 100 µM (inactive) | > 100 µM (inactive) | > 100 µM (inactive) | 
Cn1c2ncccc2n2c(=O)cc(O)cc12 | 39.6 µM (inactive) | 97.9 µM (inactive) | 82.4 µM (inactive) | 33.6 µM (inactive) | > 100 µM (inactive) | 40 µM (inactive) | 77.3 µM (inactive) | 32.4 µM (inactive) |  | 65.8 µM (inactive) | > 100 µM (inactive) | 32.4 µM (inactive) | 53.3 µM (inactive) | 64.7 µM (inactive) | 20.7 µM (inactive) | 60.5 µM (inactive) | 86.1 µM (inactive) | 53.6 µM (inactive) | > 100 µM (inactive) | 
O=C(/C=C(\O)C(=O)O)/C=C(\O)c1ccccc1Cl | > 100 µM (inactive) | > 100 µM (inactive) | > 100 µM (inactive) | > 100 µM (inactive) | > 100 µM (inactive) | > 100 µM (inactive) | > 100 µM (inactive) |  | > 100 µM (inactive) | > 100 µM (inactive) |  | > 100 µM (inactive) |  | > 100 µM (inactive) | > 100 µM (inactive) | > 100 µM (inactive) | > 100 µM (inactive) | > 100 µM (inactive) | > 100 µM (inactive) | 
CC1CC(C)C2OC2(C)C[C@H](C)C(=O)NC(C)C(=O)N(C)[C@H](Cc2c(Br)[nH]c3ccccc23)C(=O)N[C@@H](c2ccc(O)cc2)CC(=O)O1 (stereo partly specified) | 0.033 µM (active) | 1.22 µM (inactive) | < 0.0262 µM (active) | 0.527 µM (active) | 0.0355 µM (active) | 0.22 µM (active) | 2.5 µM (inactive) |  | 0.0723 µM (active) | 0.249 µM (active) |  | 1.09 µM (active) |  | 0.522 µM (active) | 1.34 µM (inactive) | 0.0388 µM (active) | 2.02 µM (inactive) | 0.0466 µM (active) | 0.433 µM (active) | 
O=C(O)Cc1cc(=O)oc2cc(O)c(Cl)cc12 | > 100 µM (inactive) | > 100 µM (inactive) | > 100 µM (inactive) | > 100 µM (inactive) | > 100 µM (inactive) | > 100 µM (inactive) | > 100 µM (inactive) |  | > 100 µM (inactive) | > 100 µM (inactive) |  | > 100 µM (inactive) |  | > 100 µM (inactive) | > 100 µM (inactive) | > 100 µM (inactive) | > 100 µM (inactive) | > 100 µM (inactive) | > 100 µM (inactive) | 
COC(=O)C(CC12CC3CC(CC(C3)C1)C2)NC(=O)C(N)CC(=O)O (stereo unspecified) | > 100 µM (inactive) | > 100 µM (inactive) | > 100 µM (inactive) |  | > 100 µM (inactive) | > 100 µM (inactive) | > 100 µM (inactive) |  |  | > 100 µM (inactive) | > 100 µM (inactive) | > 100 µM (inactive) | > 100 µM (inactive) |  | > 100 µM (inactive) | > 100 µM (inactive) | > 100 µM (inactive) |  | > 100 µM (inactive) | > 100 µM (inactive)
Oc1c(Cl)c(Cl)c(O)c(CCNc2nccs2)c1Cl | 22.3 µM (inactive) | 19.1 µM (inactive) | 3.3 µM (inactive) | 27.4 µM (inactive) |  | 38.1 µM (inactive) | 17.1 µM (inactive) | 0.119 µM (active) | 6.84 µM (inactive) | 6.85 µM (inactive) | 3.67 µM (inactive) | 11.4 µM (inactive) | 16.1 µM (inactive) |  | 48.8 µM (inactive) | 20.8 µM (inactive) | 14.3 µM (inactive) |  | 16.3 µM (inactive) | 
CS(=O)(=O)N(CCC#N)c1ccc(C=O)cc1 | > 100 µM (inactive) | > 100 µM (inactive) | > 100 µM (inactive) | > 100 µM (inactive) | > 100 µM (inactive) | > 100 µM (inactive) | > 100 µM (inactive) |  | > 100 µM (inactive) | > 100 µM (inactive) |  | > 100 µM (inactive) |  | > 100 µM (inactive) | 92.7 µM (inactive) | > 100 µM (inactive) | > 100 µM (inactive) | > 100 µM (inactive) | > 100 µM (inactive) | 
Cc1c(N2CCN(C)CC2)nc2ccc(Cl)cc2c1-c1ccccc1 | 17.3 µM (inactive) | 17.4 µM (inactive) | 16.8 µM (inactive) | 16.9 µM (inactive) | 18.9 µM (inactive) | 17.7 µM (inactive) | 15.7 µM (inactive) |  | 12.7 µM (inactive) | 12.4 µM (inactive) |  | 17.3 µM (inactive) |  | 12.2 µM (inactive) | > 10 µM (inactive) | 17.5 µM (inactive) | 17.7 µM (inactive) | 14.7 µM (inactive) | 47.4 µM (inactive) | 
CCc1nc2ccccc2c(=O)n1/N=C(\N=N\c1ccc(Cl)cc1)c1ccccc1 | 32.7 µM (inactive) | 25 µM (inactive) | 31.3 µM (inactive) | 38.6 µM (inactive) | 30.7 µM (inactive) | 23.5 µM (inactive) | 30.8 µM (inactive) |  | 42.4 µM (inactive) | 18.2 µM (inactive) |  | 17 µM (inactive) |  | 26.7 µM (inactive) | 28.1 µM (inactive) | 27.4 µM (inactive) | 26.1 µM (inactive) | 16.9 µM (inactive) | 23.7 µM (inactive) | 
CC(=O)Nc1ccccc1-c1nc2ccccc2nc1C | > 100 µM (inactive) | > 100 µM (inactive) | > 100 µM (inactive) | > 100 µM (inactive) | > 100 µM (inactive) | > 100 µM (inactive) | > 100 µM (inactive) |  | > 100 µM (inactive) | > 100 µM (inactive) |  | > 100 µM (inactive) |  | > 100 µM (inactive) | > 100 µM (inactive) | > 100 µM (inactive) | > 100 µM (inactive) | > 100 µM (inactive) | > 100 µM (inactive) | 
C=C(C)/C=C/C(O)[C@](C)(O)[C@H]1[C@H](O)C[C@@]2(C)[C@@H]3CCc4c(cc(OC5OC(CO)C(O)C(O)C5O)c(O)c4C)C3(C)C(=O)C[C@]12C (stereo partly specified) | > 100 µM (inactive) | > 100 µM (inactive) | > 100 µM (inactive) | > 100 µM (inactive) |  | > 100 µM (inactive) | 49 µM (inactive) | > 100 µM (inactive) |  | > 100 µM (inactive) | > 100 µM (inactive) | > 100 µM (inactive) | > 100 µM (inactive) | > 100 µM (inactive) | > 100 µM (inactive) | > 100 µM (inactive) | > 100 µM (inactive) | > 100 µM (inactive) | > 100 µM (inactive) | 

Source: ChEMBL document CHEMBL1201862, “PubChem BioAssay data set” (2004)
